Measured values: patent publication US10286004B2, “Targeting-enhanced anticancer nanoparticles and preparation methods of same” (JINIS CO., LTD., priority 2013, dated 2019)

What was measured:
[1] = Tumor targeting efficacy: drug distribution between tumor and healthy tissues in xenograft mice (LC/MS); format: in vivo; details: female, athymic nude, mouse, iv; tumor tissue; 10 mg/kg/day i.v.; organs collected 16 hours after administration
Description: (§1) To evaluate the tumor-targeting characteristics of the targeting-enhanced nanoparticles formulated in the Examples 1 and 2, the nanoparticles were injected into mice containing human breast xenograft tumors, and the distribution of radioactivity between tumor tissues and healthy tissues was analyzed.
(§2) When the tumors reached a size of ˜100 mm^3, mice were treated intravenously with either saline control or nanoparticle preparations prepared in Examples 1 and 2, at a dose of 10 mg/kg/day. Organs from each mouse were collected at 16 hours after nanoparticle administration and ground completely with the Beadbeater. The analyte drugs were extracted from the ground tissues with acetonitrile, and the drug concentrations in each tissue were analyzed by LC/MS. The drug concentrations delivered to each tissue relative to the Injected Dose (ID) were measured in both healthy and tumor tissues, as shown in Table 3.
(§3) Targeting-enhanced nanoparticles containing paclitaxel were administered intravenously to mice with tumor xenografts, and at 4 hours after injection, the mice were exposed to a light-emitting diode, LED, at the wavelength of 630 nm at an intensity of […] for 30 minutes.

[2] = system: human breast xenograft tumors (MDA-MB-231); experiment: as above; format: in vivo; details: 10 mg/kg/day i.v., organs collected 16 hours after administration; for healthy % ID/g: healthy tissues
Description: as §1, §2, §3

[3] = system: large-sized tumor xenografts representing late-stage cancer; experiment: Efficacy of doxorubicin nanoparticles in late-stage cancer xenograft; format: in vivo, mice; details: without LED stated
Description: The lung cancer cell line NCI-H460-luc2 (Caliper Life Sciences) was prepared in suspension at 5×10^6 cells.
Tumor growth was monitored using bioluminescence imaging of luciferase-expressing cancer cell lines. Mice were injected intraperitoneally with D-luciferin at a dosage of 150 mg luciferin/kg body weight. Mice were then anesthetized under isoflurane gas supplemented with oxygen and placed under a camera equipped with a Xenogen IVIS 200 imager to generate a bioluminescent image using an IVIS imaging system (Xenogen). Bioluminescence color images were superimposed using Living Image software.

healthy mice = experiment: Toxicity (LD50) in healthy mice; format: in vivo; details: monitored 14 days, based on mortality
Description: After establishment of the tumor-xenograft model, either healthy mice or tumor-xenografted mice were divided into three groups (n=6) receiving saline solution (control group), free paclitaxel at the indicated dose, or targeting-enhanced nanoparticles in saline solution at the indicated dose of paclitaxel. […] To evaluate their toxicity, targeting-enhanced nanoparticles were administered to healthy mice and tumor-xenograft mice at 10 different dosages of paclitaxel: 20, 40, 60, 80, 100, 120, 250, 300, 350, and 400 mg/kg/day. Body weights and physical changes were monitored over 14 days, and the LD50s were calculated based on mortality.

SMILES | tissue uptake at 16 h [1] | healthy % ID/g [2] | tumor growth day 0 to day 28 (FIG. 10) [3] | tumor % ID/g ([2]; tumor tissue) | LD50 (healthy mice)
COc1cccc2c1C(=O)c1c(O)c3c(c(O)c1C2=O)C[C@@](O)(C(=O)CO)C[C@@H]3O[C@H]1C[C@H](N)[C@H](O)[C@H](C)O1 [Free drug doxorubicin, doxorubicin] | 1.5 %ID/g | 0.4~3.4 % ID/g | clear tumor growth | – | –
Nc1ccn([C@@H]2O[C@H](CO)[C@@H](O)C2(F)F)c(=O)n1 [Free drug gemcitabine, gemcitabine] | 2.4 %ID/g | 0.2~4.2 % ID/g | – | – | –
O=C1[O][Pt]2([NH][C@@H]3CCCC[C@H]3[NH]2)[O]C1=O [Free drug oxaliplatin, oxaliplatin] | – | 0.1~3.5 % ID/g | – | 2.5 % ID/g | –
CC(=O)O[C@H]1C(=O)[C@@]2(C)[C@H]([C@H](OC(=O)c3ccccc3)[C@]3(O)C[C@H](OC(=O)[C@H](O)[C@@H](NC(=O)c4ccccc4)c4ccccc4)C(C)=C1C3(C)C)[C@]1(OC(C)=O)CO[C@@H]1C[C@@H]2O [Free drug paclitaxel, paclitaxel] | 0.52 %ID/g | – | – | – | 30 mg/kg/day
